For the experiment, the target named is Dipeptidyl peptidase 4 (Rattus norvegicus, UniProt P14740). Briefly: Inhibitory activity against dipeptidyl peptidase IV (DP-IV).
Sequence of Dipeptidyl peptidase 4 (P14740 whole entry): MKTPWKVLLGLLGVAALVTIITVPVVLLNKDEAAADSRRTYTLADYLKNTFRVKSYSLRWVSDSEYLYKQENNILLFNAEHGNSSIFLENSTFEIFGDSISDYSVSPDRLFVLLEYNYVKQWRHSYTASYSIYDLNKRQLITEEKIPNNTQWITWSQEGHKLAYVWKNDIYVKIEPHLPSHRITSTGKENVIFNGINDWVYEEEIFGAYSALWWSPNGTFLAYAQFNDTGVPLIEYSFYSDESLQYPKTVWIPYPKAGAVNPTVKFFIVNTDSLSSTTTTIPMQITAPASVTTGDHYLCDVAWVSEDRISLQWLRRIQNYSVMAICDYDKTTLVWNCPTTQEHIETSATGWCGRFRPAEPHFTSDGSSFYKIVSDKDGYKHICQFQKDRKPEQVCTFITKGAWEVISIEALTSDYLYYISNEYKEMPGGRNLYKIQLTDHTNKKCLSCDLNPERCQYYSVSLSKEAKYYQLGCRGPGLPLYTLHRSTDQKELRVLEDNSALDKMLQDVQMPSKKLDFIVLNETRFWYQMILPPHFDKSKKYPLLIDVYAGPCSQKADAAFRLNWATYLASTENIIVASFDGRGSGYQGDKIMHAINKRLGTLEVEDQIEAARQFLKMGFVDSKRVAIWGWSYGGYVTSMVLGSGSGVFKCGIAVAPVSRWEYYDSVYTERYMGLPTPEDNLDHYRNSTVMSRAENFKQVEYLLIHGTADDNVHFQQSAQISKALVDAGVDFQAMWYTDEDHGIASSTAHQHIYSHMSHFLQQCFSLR

Regarding `CCC(C)[C@H](N)C(=O)N1CCCN1C(=O)Nc1ccc([N+](=O)[O-])c(Cl)c1` (stereo not given in full), the IC50 (as a rule, the concentration needed to halve the response being measured) turned out to be 4.71 µM.
In turn, `CCC(C)[C@H](N)C(=O)N1CCCN1C(=O)Nc1ccc([N+](=O)[O-])cc1` (stereo not given in full) showed an IC50 of 7.06 µM.
In turn, `CCC(C)[C@H](N)C(=O)N1CCCN1C(=O)Nc1ccc(Cl)c(Cl)c1` (stereo not given in full) displayed a concentration for half-maximal inhibition (IC50) of 5.6 µM.
For `CC(C)[C@H](N)C(=O)N1CCCN1C(=O)Nc1cccc([N+](=O)[O-])c1` the value was 2.1 µM.
For the compound `CCC(C)[C@H](N)C(=O)N1CCCN1C(=O)Nc1ccc([N+](=O)[O-])c(F)c1` (stereo not given in full), the midpoint of inhibition, the IC50, lay at 2.27 µM.
The value for `CCC(C)[C@H](N)C(=O)N1CCCN1C(=O)Nc1ccccc1` (stereo not given in full) was 15 µM; that for `CCC(C)[C@H](N)C(=O)N1CCCN1C(=O)OCc1ccccc1` (stereo not given in full) was 23.3 µM.
`CCC(C)[C@H](N)C(=O)N1CCCN1C(=O)Nc1cccc(C#N)c1` (stereo not given in full): it took 4.04 µM to reach half-maximal inhibition (IC50).
Take `CCOC(=O)c1ccc(NC(=O)N2CCCN2C(=O)[C@@H](N)C(C)CC)cc1` (stereo not given in full): half-maximal inhibition (IC50) was put at 3.9 µM.
As for `CCC(C)[C@H](N)C(=O)N1CCCN1C(=O)Nc1cccc([N+](=O)[O-])c1` (stereo not given in full), 1.56 µM corresponded to half-maximal inhibition (IC50).
The compound `CCC(C)[C@H](N)C(=O)N1CCCN1C(=O)Nc1ccc(C(F)(F)F)cc1` (stereo not given in full) came in with an IC50 of 25 µM.
For `CCOC(=O)c1cccc(NC(=O)N2CCCN2C(=O)[C@@H](N)C(C)CC)c1` (stereo not given in full) the value was 8.8 µM.
Consider `CCC(C)[C@H](N)C(=O)N1CCCN1C(=O)Nc1ccc(C#N)cc1` (stereo not given in full), for which the IC50 was found to be 9.2 µM.
In the case of `O=C(CNC1CCCCC1)N1CCCN1C(=O)Nc1cccc([N+](=O)[O-])c1`, the half-maximal inhibitory concentration (IC50) came to 4.6 µM.
For `CC(C)C[C@H](N)C(=O)N1CCCN1C(=O)Nc1cccc([N+](=O)[O-])c1` the value was 20.7 µM.

Source of the values: ChEMBL document CHEMBL1141998, “Synthesis and evaluation of pyrazolidine derivatives as dipeptidyl peptidase IV (DP-IV) inhibitors” (Bioorg Med Chem Lett, 2005).
